Patent publication US9770452B2, “Quinoxaline derivatives as GPR6 modulators” (Takeda Pharmaceutical Company Limited, priority 2012, dated 2017)
Where a name gives a salt, the structure may show the parent alone.

Biological target: T1, GPR6 receptor (Homo sapiens, UniProt P46095)
T1 construct: expressed in transfected cells
Test: Inhibition of cAMP Activity of GPR6 In Vitro Assay (CHO-K1 cells, HTRF cAMP)
Type: cell-based
Settings: compounds of Compound Table 1; inhibition of constitutive cAMP activity of GPR6 expressed in CHO-K1 cells; approximate IC50; read-out: IC50
Procedure, shortened: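 CHO-K1 cells with doxycycline-induced (1 μg/ml, 20 h) GPR6 treated with compounds 45 min at 37 °C in Ringer's buffer (pH 7.4) with 0.5% fatty acid free BSA. Constitutive cAMP measured by Lance HTRF Ultra cAMP; IC50 from four-parameter logistic fit.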

T1 sequence (P46095 whole entry): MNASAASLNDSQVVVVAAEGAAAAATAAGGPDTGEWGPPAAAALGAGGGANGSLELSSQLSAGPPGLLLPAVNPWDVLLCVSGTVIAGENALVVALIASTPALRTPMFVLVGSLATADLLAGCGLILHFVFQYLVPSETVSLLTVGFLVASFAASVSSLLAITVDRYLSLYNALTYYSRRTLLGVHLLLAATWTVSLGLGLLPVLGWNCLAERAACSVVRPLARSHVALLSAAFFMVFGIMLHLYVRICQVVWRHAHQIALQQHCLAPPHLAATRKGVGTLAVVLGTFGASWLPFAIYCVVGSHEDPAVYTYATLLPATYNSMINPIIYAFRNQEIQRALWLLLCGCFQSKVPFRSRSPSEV

Row | Molecule | IC50 [nM]
1 | 3-(4-(2,4-difluorobenzyl)piperazin-1-yl)-2-(isopropylamino)-N,N-dimethylpyrido[3,4-b]pyrazine-7-carboxamide, 2,2,2-trifluoroacetic acid salt [Cpd 634] | 6
2 | (2-(cyclopropylamino)-3-(4-(2-fluoro-4-methoxyphenoxy)piperidin-1-yl)pyrido[3,4-b]pyrazin-7-yl)(4-methylpiperazin-1-yl)methanone [Cpd 603] | 1020
3 | 3-(4-(4-chloro-2-fluorophenoxy)piperidin-1-yl)-2-(isopropylamino)-N,N-dimethylpyrido[3,4-b]pyrazine-7-carboxamide, 2,2,2-trifluoroacetic acid salt [Cpd 630] | 7
4 | 2-(cyclopropylamino)-3-(4-((2,5-dimethoxyphenyl)sulfonyl)piperazin-1-yl)quinoxaline-6-carbonitrile, 2,2,2-trifluoroacetic acid salt [Cpd 329] | 1300
5 | (4-chloro-2-(trifluoromethyl)phenyl)(4-(2-(cyclopropylamino)pyrido[3,4-b]pyrazin-3-yl)piperazin-1-yl)methanone, 2,2,2-trifluoroacetic acid salt [Cpd 392] | 260
6 | Clc1ccc(Cl)c(CN2CCN(c3nc4cc(Br)ccc4nc3NC3CC3)CC2)c1 [Cpd 46, 6-bromo-N-cyclopropyl-3-(4-(2,5-dichlorobenzyl)piperazin-1-yl)quinoxalin-2-amine, 2,2,2-trifluoroacetic acid salt] | 4820
7 | (S)-2-(cyclopropylamino)-3-(4-((2,4-difluorophenyl)fluoromethyl)piperidin-1-yl)-N,N-dimethylpyrido[3,4-b]pyrazine-7-carboxamide, 2,2,2-trifluoroacetic acid salt [Cpd 576] | 2880
8 | (R)—N-cyclopropyl-3-(4-((2,4-difluorophenyl)fluoromethyl)piperidin-1-yl)pyrazino[2,3-d]pyridazin-2-amine, 2,2,2-trifluoroacetic acid salt [Cpd 599] | 5
9 | 3-(4-(2,5-dichlorobenzyl)piperazin-1-yl)-N-(2-ethoxyethyl)quinoxalin-2-amine, 2,2,2-trifluoroacetic acid salt [Cpd 167] | 3330
10 | 3-(1-(2-(cyclopropylamino)pyrido[3,4-b]pyrazin-3-yl)piperidine-4-carbonyl)-4-fluorobenzonitrile, 2,2,2-trifluoroacetic acid salt [Cpd 587] | 78
11 | 3-(4-(2-fluoro-4-methoxyphenoxy)piperidin-1-yl)-N-isopropylpyrido[3,4-b]pyrazin-2-amine, 2,2,2-trifluoroacetic acid salt [Cpd 616] | 939
12 | 2-(cyclopropylamino)-3-(4-(2,5-difluorobenzyl)piperazin-1-yl)quinoxaline-6-carbonitrile, 2,2,2-trifluoroacetic acid salt [Cpd 257] | 310
13 | (4-chlorophenyl)(1-(2-(cyclopropylamino)pyrido[3,4-b]pyrazin-3-yl)piperidin-4-yl)methanone, 2,2,2-trifluoroacetic acid salt [Cpd 430] | 1100
14 | 5-chloro-1-((1-(2-(cyclopropylamino)pyrido[3,4-b]pyrazin-3-yl)piperidin-4-yl)methyl)pyridin-2(1H)-one [Cpd 532] | 380
15 | Cc1cc(Br)ccc1C(=O)N1CCN(c2nc3ccccc3nc2NC2CC2)CC1 [Cpd 122, (4-bromo-2-methylphenyl)(4-(3-(cyclopropylamino)quinoxalin-2-yl)piperazin-1-yl)methanone, 2,2,2-trifluoroacetic acid salt] | 10300
16 | 3-(4-((2,4-difluorophenyl)fluoromethyl)piperidin-1-yl)-N-(2-methoxyethyl)pyrido[3,4-b]pyrazin-2-amine, 2,2,2-trifluoroacetic acid salt [Cpd 520] | 30
17 | 3-(4-((2-chloro-4-(trifluoromethyl)phenyl)sulfonyl)piperazin-1-yl)-2-(cyclopropylamino)quinoxaline-6-carbonitrile, 2,2,2-trifluoroacetic acid salt [Cpd 330] | 29
18 | 3-(cyclopropylamino)-2-(4-((2,5-difluorophenyl)fluoromethyl)piperidin-1-yl)quinoxaline-6-carbonitrile, 2,2,2-trifluoroacetic acid salt [Cpd 484] | 29
19 | N#Cc1ccc2nc(NC3CC3)c(N3CCC(C(F)c4ccc(F)cc4F)CC3)nc2c1 (centres unmarked) [Cpd 481] | 24
20 | 3-(4-(2,5-difluorobenzyl)piperazin-1-yl)-2-((6-methoxypyridin-3-yl)amino)quinoxaline-6-carbonitrile, 2,2,2-trifluoroacetic acid salt [Cpd 333] | 97
21 | N-cyclopropyl-3-(4-(3-methoxyphenoxy)piperidin-1-yl)pyrido[3,4-b]pyrazin-2-amine, 2,2,2-trifluoroacetic acid salt [Cpd 558] | 1940

Row | Molecule | IC50 [nM]
22 | N#Cc1cccc(CN2CCN(c3nc4ccccc4nc3NC3CC3)CC2)c1 [Cpd 95, 3-((4-(3-(cyclopropylamino)quinoxalin-2-yl)piperazin-1-yl)methyl)benzonitrile, 2,2,2-trifluoroacetic acid salt] | 22200
23 | Clc1cccc(CN2CCN(c3nc4ccccc4nc3NC3CC3)CC2)c1 [Cpd 5, 3-(4-(3-chlorobenzyl)piperazin-1-yl)-N-cyclopropylquinoxalin-2-amine, 2,2,2-trifluoroacetic acid salt] | 40600
24 | N-cyclohexyl-3-(4-(2,5-dichlorobenzyl)piperazin-1-yl)quinoxalin-2-amine, 2,2,2-trifluoroacetic acid salt [Cpd 170] | 4070
25 | 8-chloro-N-cyclopropyl-3-(4-((2,5-difluorophenyl)fluoromethyl)piperidin-1-yl)pyrido[3,4-b]pyrazin-2-amine, 2,2,2-trifluoroacetic acid salt [Cpd 486] | 98
26 | 2-(cyclopropylamino)-3-(4-tosylpiperazin-1-yl)quinoxaline-6-carbonitrile [Cpd 240] | 4590
27 | 2-((2,2-difluoroethyl)amino)-3-(4-(2,4-difluorophenoxy)piperidin-1-yl)pyrido[3,4-b]pyrazine-7-carbonitrile, 2,2,2-trifluoroacetic acid salt [Cpd 646] | 538
28 | 3-(4-(5-chloro-2-fluorobenzoyl)piperidin-1-yl)-2-(cyclopropylamino)quinoxaline-6-carbonitrile, 2,2,2-trifluoroacetic acid salt [Cpd 469] | 90
29 | 3-(4-((5-chloro-2-fluorophenyl)fluoromethyl)piperidin-1-yl)-N-cyclopropylpyrido[3,4-b]pyrazin-2-amine [Cpd 452] | 21
30 | O=C(c1cc2nc(NC3CC3)c(N3CCC([C@H](F)c4ccc(F)cc4F)CC3)nc2cn1)N1CCC1 [Cpd 591, (S)-azetidin-1-yl(2-(cyclopropylamino)-3-(4-((2,4-difluorophenyl)fluoromethyl)piperidin-1-yl)pyrido[3,4-b]pyrazin-7-yl)methanone] | 22
31 | 2-(cyclopropylamino)-3-(4-(2-fluoro-4-methoxybenzyl)piperazin-1-yl)-N,N-dimethylpyrido[3,4-b]pyrazine-7-carboxamide, 2,2,2-trifluoroacetic acid salt [Cpd 614] | 66
32 | CS(=O)(=O)c1ccc(C(=O)N2CCN(c3nc4ccccc4nc3NC3CC3)CC2)c(Cl)c1 [Cpd 67, (2-chloro-4-(methylsulfonyl)phenyl)(4-(3-(cyclopropylamino)quinoxalin-2-yl)piperazin-1-yl)methanone] | 1030
33 | (S)—N-cyclopropyl-3-(4-((2,4-difluorophenyl)fluoromethyl)piperidin-1-yl)-5-methylpyrido[3,4-b]pyrazin-2-amine, 2,2,2-trifluoroacetic acid salt [Cpd 516] | 29
34 | 3-(4-(2,5-difluorobenzyl)piperazin-1-yl)-2-((3,3,3-trifluoropropyl)amino)quinoxaline-6-carbonitrile, 2,2,2-trifluoroacetic acid salt [Cpd 400] | 390
35 | COCCCNc1nc2ccccc2nc1N1CCN(Cc2cc(Cl)ccc2Cl)CC1 [Cpd 66, 3-(4-(2,5-dichlorobenzyl)piperazin-1-yl)-N-(3-methoxypropyl)quinoxalin-2-amine] | 1940
36 | C[C@@H]1C[C@H]1Nc1nc2cnncc2nc1N1CCC([C@@H](F)c2ccc(F)cc2F)CC1 [Cpd 645, 3-(4-((R)-(2,4-difluorophenyl)fluoromethyl)piperidin-1-yl)-N-((1R,2R)-2-methylcyclopropyl)pyrazino[2,3-d]pyridazin-2-amine, 2,2,2-trifluoroacetic acid salt] | 145
37 | O=C(c1cc(Cl)ccc1Cl)N1CCN(c2nc3ccccc3nc2NC2CCCC2)CC1 [Cpd 39, (4-(3-(cyclopentylamino)quinoxalin-2-yl)piperazin-1-yl)(2,5-dichlorophenyl)methanone, 2,2,2-trifluoroacetic acid salt] | 6150
38 | (2-chloro-6-fluorophenyl)(1-(2-(cyclopropylamino)pyrido[3,4-b]pyrazin-3-yl)piperidin-4-yl)methanone [Cpd 575] | 6750
39 | Cc1cccc(CN2CCN(c3nc4cccnc4nc3NC3CC3)CC2)c1 [Cpd 2, N-cyclopropyl-2-(4-(3-methylbenzyl)piperazin-1-yl)pyrido[2,3-b]pyrazin-3-amine, 2,2,2-trifluoroacetic acid salt] | 45400
40 | 3-(4-((5-chloro-2-fluorophenyl)difluoromethyl)piperidin-1-yl)-N-cyclopropylpyrido[3,4-b]pyrazin-2-amine [Cpd 539] | 770
41 | 3-(4-(2,4-difluorophenoxy)piperidin-1-yl)-N-isopropylpyrazino[2,3-d]pyridazin-2-amine, 2,2,2-trifluoroacetic acid salt [Cpd 632] | 28
